Assay results: US20240226115A1, “AXL INHIBITOR COMPOUNDS” (ARCUS BIOSCIENCES, INC., priority 2021, published 2024)

target: T1, Axl (Homo sapiens, UniProt P30530); assay: HTRF KinEASE-TK biochemical potency, AXL; design: purchased Invitrogen; settings: 5 nM AXL, 700 μM ATP
T1 sequence (P30530 26-894): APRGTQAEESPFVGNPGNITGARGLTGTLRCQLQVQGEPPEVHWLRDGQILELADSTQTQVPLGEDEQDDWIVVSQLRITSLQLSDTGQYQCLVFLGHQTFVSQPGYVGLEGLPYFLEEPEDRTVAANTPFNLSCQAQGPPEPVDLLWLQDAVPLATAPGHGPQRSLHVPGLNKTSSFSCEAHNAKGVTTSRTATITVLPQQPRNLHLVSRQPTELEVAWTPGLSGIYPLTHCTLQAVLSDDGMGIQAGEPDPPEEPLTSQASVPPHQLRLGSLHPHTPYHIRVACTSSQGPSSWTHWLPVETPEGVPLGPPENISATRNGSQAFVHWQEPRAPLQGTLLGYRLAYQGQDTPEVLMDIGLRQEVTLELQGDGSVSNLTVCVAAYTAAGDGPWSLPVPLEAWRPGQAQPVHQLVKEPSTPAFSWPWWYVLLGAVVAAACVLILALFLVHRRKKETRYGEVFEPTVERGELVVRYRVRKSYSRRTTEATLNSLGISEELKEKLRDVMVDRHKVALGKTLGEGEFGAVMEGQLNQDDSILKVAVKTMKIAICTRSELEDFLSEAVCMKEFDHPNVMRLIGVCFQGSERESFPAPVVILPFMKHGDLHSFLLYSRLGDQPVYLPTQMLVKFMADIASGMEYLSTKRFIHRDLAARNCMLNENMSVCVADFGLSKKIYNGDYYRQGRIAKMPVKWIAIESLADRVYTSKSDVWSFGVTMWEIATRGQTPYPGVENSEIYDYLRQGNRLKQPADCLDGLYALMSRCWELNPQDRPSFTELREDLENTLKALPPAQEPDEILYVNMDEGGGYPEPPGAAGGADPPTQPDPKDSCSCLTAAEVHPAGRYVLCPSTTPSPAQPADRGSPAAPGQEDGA
Procedure: Purified recombinant human AXL, TYRO3 and MER proteins were purchased from Invitrogen™. 10 nM AXL, 2 nM TYRO3 or MER were incubated with varying concentrations of compounds in 50 mM HEPES, pH 7.4, 10 mM MgCl2, 0.01% BSA, 1 mM DTT and 2% DMSO in a total volume of 20 μl in a 384-well microplate (Corning™ #3640) at RT for 1 h. The AXL, TYRO3 and MER enzymatic reaction was initiated by transferring 10 μl of enzyme and compound mixture into 10 μl of 1.6 μM TK Substrate-biotin (HTRF® KinEASE-TK kit, Cisbio) and 1400 μM ATP pre-incubated in 50 mM HEPES, pH 7.4, 10 mM MgCl2, 0.01% BSA, 1 mM DTT in a 384-well microplate (Corning™ #3640) at RT, giving the final reaction conditions: 5 nM AXL, 1 nM TYRO3 or MER, 800 nM TK Substrate-biotin and 700 μM ATP in 50 mM HEPES, pH 7.4, 10 mM MgCl2, 0.01% BSA, 1 mM DTT and 1% DMSO with varying concentrations of compounds. Following 2 h incubation at RT, the AXL, TYRO3 and MER enzymatic reaction was stopped by transfer of 10 μl of reaction into 10 μl of detection mix (400 nM Streptavidin-XL665, 200-fold dilution TK Antibody-Cryptate and detection buffer, HTRF® KinEASE-TK kit, Cisbio) in a white 384-well microplate (Perkin Elmer, OptiPlate 384). After 1 h incubation at RT, the plate was put into a plate reader (Evision) to read at 665/620 nm (acceptor/donor) for HTRF. The value of the DMSO blank (MIN inhibition=100% activity) was used as a negative control. The positive control was established by adding 5 μl of enzyme and DMSO mixture into 10 μl of detection mix followed by addition of 5 μl of TK Substrate-biotin and ATP mixture (MAX inhibition=0% activity). To calculate the percent activity, Equation 1 was used. Ratio665/620 is the value at a given compound concentration: […]

IC50 | Structure (SMILES)
< 100 nM | CC[C@@H]1CCCN1C1CCc2ccc(-c3cnc4[nH]nc(-c5ccc6c(c5)OCCNC6=O)c4c3)cc2CC1 (stereo partly drawn) [Example 25, 8-(5-{7-[(2R)-2-Ethylpyrrolidin-1-yl]-6,7,8,9-tetrahydro-5H-benzo[7]annulen-2-yl}-1H-pyrazolo[3,4-b]pyridin-3-yl)-2,3,4,5-tetrahydro-1,4-benzoxazepin-5-one]
< 100 nM | C[C@@H]1CCCN1C1CCc2ccc(-c3cnc4[nH]nc(-c5ccc6c(c5)OCCC6(C)O)c4c3)cc2CC1 (stereo partly drawn) [Example 29, 4-Methyl-7-(5-{7-[(2R)-2-Methylpyrrolidin-1-yl]-6,7,8,9-tetrahydro-5H-benzo[7]annulen-2-yl}-1H-pyrazolo[3,4-b]pyridin-3-yl)-3,4-dihydro-2H-1-benzopyran-4-ol]
< 100 nM | CC1(O)CCc2cc(-c3n[nH]c4ncc(-c5ccc6c(c5)CC[C@@H](N5CCCC5)CC6)cc34)ccc21 (stereo partly drawn) [Example 30, 1-Methyl-5-{5-[(7S)-7-(pyrrolidin-1-yl)-6,7,8,9-tetrahydro-5H-benzo[7]annulen-2-yl]-1H-pyrazolo[3,4-b]pyridin-3-yl}-2,3-dihydro-1H-inden-1-ol]
< 100 nM | CC1(C)NS(=O)(=O)c2cc(-c3n[nH]c4ncc(-c5ccc6c(c5)CCC(N5CCCC5)CC6)cc34)ccc21 (stereo not drawn) [Example 32, 3,3-Dimethyl-6-{5-[7-(pyrrolidin-1-yl)-6,7,8,9-tetrahydro-5H-benzo[7]annulen-2-yl]-1H-pyrazolo[3,4-b]pyridin-3-yl}-2,3-dihydro-1λ^6,2-benzothiazole-1,1-dione]
< 100 nM | C[C@@H]1CCCN1C1CCc2ccc(-c3cnc4[nH]nc(-c5ccc6c(c5)S(=O)(=O)NC6(C)C)c4c3)cc2CC1 (stereo partly drawn) [Example 33, 3,3-Dimethyl-6-(5-{7-[(2R)-2-methylpyrrolidin-1-yl]-6,7,8,9-tetrahydro-5H-benzo[7]annulen-2-yl}-1H-pyrazolo[3,4-b]pyridin-3-yl)-2,3-dihydro-1λ^6,2-benzothiazole-1,1-dione]
< 100 nM | CC1(C)NS(=O)(=O)c2cc(-c3n[nH]c4ncc(-c5ccc6c(c5)CCC(N5CCC[C@@H]5CO)CC6)cc34)ccc21 (stereo partly drawn) [Example 34, 6-(5-{7-[(2R)-2-(Hydroxymethyl)pyrrolidin-1-yl]-6,7,8,9-tetrahydro-5H-benzo[7]annulen-2-yl}-1H-pyrazolo[3,4-b]pyridin-3-yl)-3,3-dimethyl-2,3-dihydro-1λ^6,2-benzothiazole-1,1-dione]
< 100 nM | CC1(C)COc2cc(-c3n[nH]c4ncc(-c5ccc6c(c5)CCC(N5CCCC5)CC6)cc34)ccc2C(=O)N1 (stereo not drawn) [Example 35, 3,3-Dimethyl-8-{5-[7-(pyrrolidin-1-yl)-6,7,8,9-tetrahydro-5H-benzo[7]annulen-2-yl]-1H-pyrazolo[3,4-b]pyridin-3-yl}-2,3,4,5-tetrahydro-1,4-benzoxazepin-5-one]
< 100 nM | C[C@@H]1CCCN1C1CCc2ccc(-c3cnc4[nH]nc(-c5ccc6c(c5)OCC5(CC5)NC6=O)c4c3)cc2CC1 (stereo partly drawn) [Example 36, 8-(5-{7-[(2R)-2-Methylpyrrolidin-1-yl]-6,7,8,9-tetrahydro-5H-benzo[7]annulen-2-yl}-1H-pyrazolo[3,4-b]pyridin-3-yl)-4,5-dihydro-2H-spiro[1,4-benzoxazepine-3,1′-cyclopropan]-5-one]
< 100 nM | C[C@@H]1CCCN1C1CCc2ccc(-c3cnc4[nH]nc(-c5ccc6c(c5)C(=O)NC6(C)C)c4c3)cc2CC1 (stereo partly drawn) [Example 38, 3,3-Dimethyl-6-(5-{7-[(2R)-2-methylpyrrolidin-1-yl]-6,7,8,9-tetrahydro-5H-benzo[7]annulen-2-yl}-1H-pyrazolo[3,4-b]pyridin-3-yl)-2,3-dihydro-1H-isoindol-1-one]

Further lines, the compound ahead of its results:

Structure (SMILES) | IC50
C[C@@H]1CCCN1C1(C)CCc2ccc(-c3cnc4[nH]nc(-c5ccc6c(c5)OCCNC6=O)c4c3)cc2CC1 (stereo partly drawn) [Example 23, 8-(5-{7-Methyl-7-[(2R)-2-methylpyrrolidin-1-yl]-6,7,8,9-tetrahydro-5H-benzo[7]annulen-2-yl}-1H-pyrazolo[3,4-b]pyridin-3-yl)-2,3,4,5-tetrahydro-1,4-benzoxazepin-5-one] | < 100 nM
C[C@H]1CCCN1C1(C)CCc2ccc(-c3cnc4[nH]nc(-c5ccc6c(c5)OCCNC6=O)c4c3)cc2CC1 (stereo partly drawn) [Example 24, 8-(5-{7-Methyl-7-[(2S)-2-methylpyrrolidin-1-yl]-6,7,8,9-tetrahydro-5H-benzo[7]annulen-2-yl}-1H-pyrazolo[3,4-b]pyridin-3-yl)-2,3,4,5-tetrahydro-1,4-benzoxazepin-5-one] | < 100 nM
CC1(O)CCOc2cc(-c3n[nH]c4ncc(-c5ccc6c(c5)CCN(C5CCCC5)CC6)cc34)ccc21 (stereo not drawn) [Example 26, 7-[5-(3-Cyclopentyl-2,3,4,5-tetrahydro-1H-3-benzazepin-7-yl)-1H-pyrazolo[3,4-b]pyridin-3-yl]-4-methyl-3,4-dihydro-2H-1-benzopyran-4-ol] | < 100 nM
CC1(O)CCCCc2cc(-c3n[nH]c4ncc(-c5ccc6c(c5)CCN(C5CCCC5)CC6)cc34)ccc21 (stereo not drawn) [Example 27, 2-[5-(3-Cyclopentyl-2,3,4,5-tetrahydro-1H-3-benzazepin-7-yl)-1H-pyrazolo[3,4-b]pyridin-3-yl]-5-methyl-6,7,8,9-tetrahydro-5H-benzo[7]annulen-5-ol] | < 100 nM
CC1(O)CCCOc2cc(-c3n[nH]c4ncc(-c5ccc6c(c5)CCN(C5CCCC5)CC6)cc34)ccc21 (stereo not drawn) [Example 28, (8-[5-(3-Cyclopentyl-2,3,4,5-tetrahydro-1H-3-benzazepin-7-yl)-1H-pyrazolo[3,4-b]pyridin-3-yl]-5-methyl-2,3,4,5-tetrahydro-1-benzoxepin-5-ol)] | < 100 nM
CC1(O)CCOc2cc(-c3n[nH]c4ncc(-c5ccc6c(c5)CC[C@@H](N5CCCC5)CC6)cc34)ccc21 (stereo partly drawn) [Example 31, 4-Methyl-7-{5-[(7S)-7-(pyrrolidin-1-yl)-6,7,8,9-tetrahydro-5H-benzo[7]annulen-2-yl]-1H-pyrazolo[3,4-b]pyridin-3-yl}-3,4-dihydro-2H-1-benzopyran-4-ol] | < 100 nM
C[C@@H]1CCCN1C1CCc2ccc(-c3cnc4[nH]nc(-c5ccc6c(c5)OCC5(CCC5)NC6=O)c4c3)cc2CC1 (stereo partly drawn) [Example 37, 8-(5-{7-[(2R)-2-Methylpyrrolidin-1-yl]-6,7,8,9-tetrahydro-5H-benzo[7]annulen-2-yl}-1H-pyrazolo[3,4-b]pyridin-3-yl)-4,5-dihydro-2H-spiro[1,4-benzoxazepine-3,1′-cyclobutan]-5-one] | < 100 nM
C[C@H]1CCCN1C1Cc2ccc(-c3cnc4[nH]nc(-c5ccc6c(c5)OCC(C)(C)NC6=O)c4c3)cc2C1 (stereo partly drawn) [Example 39, 3,3-Dimethyl-8-(5-{2-[(2S)-2-methylpyrrolidin-1-yl]-2,3-dihydro-1H-inden-5-yl}-1H-pyrazolo[3,4-b]pyridin-3-yl)-2,3,4,5-tetrahydro-1,4-benzoxazepin-5-one] | < 100 nM
Cc1cc2c(cc1-c1n[nH]c3ncc(-c4ccc5c(c4)CCC(N4CCC[C@H]4C)CC5)cc13)OCCNC2=O (stereo partly drawn) [Example 40, 7-Methyl-8-(5-{7-[(2R)-2-methylpyrrolidin-1-yl]-6,7,8,9-tetrahydro-5H-benzo[7]annulen-2-yl}-1H-pyrazolo[3,4-b]pyridin-3-yl)-2,3,4,5-tetrahydro-1,4-benzoxazepin-5-one] | < 100 nM
